Reference: patent publication US12617773B2, “Azetidin-3-ylmethanol derivatives as CCR6 receptor modulators” (Idorsia Pharmaceuticals Ltd, priority 2020, dated 2026)

Biological target: T1, human CCR6 (Homo sapiens, UniProt P51684)
T1 construct: expressed in transfected cells; host or cells: HEK-293
T1 sequence (P51684 1-374): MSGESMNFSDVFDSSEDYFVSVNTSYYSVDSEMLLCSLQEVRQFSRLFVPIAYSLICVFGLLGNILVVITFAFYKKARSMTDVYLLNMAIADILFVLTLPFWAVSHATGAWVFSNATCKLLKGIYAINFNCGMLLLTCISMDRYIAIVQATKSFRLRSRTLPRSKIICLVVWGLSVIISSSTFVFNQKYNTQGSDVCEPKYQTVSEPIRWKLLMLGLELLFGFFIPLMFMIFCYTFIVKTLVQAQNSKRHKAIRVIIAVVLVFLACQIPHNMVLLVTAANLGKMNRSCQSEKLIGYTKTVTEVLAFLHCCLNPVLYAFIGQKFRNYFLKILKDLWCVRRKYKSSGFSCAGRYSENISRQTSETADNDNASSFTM
Experiment: FLIPR assay (inhibition of CCL20-induced calcium signal)
Type: cell-based
Conditions: HEK-293 cells expressing human CCR6; mean values where determined several times; read-out: FLIPR IC50
In short: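 IC50 values come from baseline-corrected peak calcium fluorescence after agonist. The agonist was CCL20 at 10 nM final, added to engineered human CCR6 HEK-293 cells following a 30-min, room-temperature, dark preincubation with serially diluted compound. Readings were taken in a fluorometric imaging plate reader.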

| SMILES | IC50 [nM] |
| --- | --- |
| COC1CN(C(C)=O)CCC1c1nc(-c2cncc([C@@](O)(c3ccc(C(C)C)cc3)C3(C)CN(C)C3)c2)no1 (stereo partly drawn) [Example 500, 1-[4-(3-{5-[(R)-(1,3-Dimethyl-azetidin-3-yl)-hydroxy-(4-isopropyl-phenyl)-methyl]-pyridin-3-yl}-[1,2,4]oxadiazol-5-yl)-3-methoxy-piperidin-1-yl]-ethanone] | 149 |
| CC(=O)N1CCC[C@@H](c2nc(-c3cncc([C@@](O)(c4ccc(C(C)C)cc4)C4(C)CN(C)C4)c3)no2)C1 [Example 501, 1-[(R)-3-(3-{5-[(R)-(1,3-Dimethyl-azetidin-3-yl)-hydroxy-(4-isopropyl-phenyl)-methyl]-pyridin-3-yl}-[1,2,4]oxadiazol-5-yl)-piperidin-1-yl]-ethanone] | 108 |
| CC(C)c1ccc([C@](O)(c2cncc(-c3noc(C4(O)CCOCC4)n3)c2)C2(C)CN(C)C2)cc1 [Example 502] | 65.8 |
| CC(C)c1ccc([C@](O)(c2cncc(-c3noc(C45CC(CO)(C4)C5)n3)c2)C2(C)CN(C)C2)cc1 [Example 503] | 51.1 |
| CC(C)c1ccc([C@](O)(c2cncc(-c3noc(C4CC(=O)N(C)C(=O)C4)n3)c2)C2(C)CN(C)C2)cc1 [Example 504] | 143 |
| CC(C)c1ccc([C@](O)(c2cncc(-c3noc(C(F)(F)CO)n3)c2)C2(C)CN(C)C2)cc1 [Example 505] | 35.9 |
| COc1cccc(-c2nc(-c3cncc([C@@](O)(c4ccc(C(C)C)cc4)C4(C)CN(C)C4)c3)no2)c1 [Example 506] | 24 |
| CC(C)c1ccc([C@](O)(c2cncc(-c3noc(C(C)C)n3)c2)C2(C)CN(C)C2)cc1 [Example 507] | 32.7 |
| Cc1cc(-c2nc(-c3cncc([C@@](O)(c4ccc(C(C)C)cc4)C4(C)CN(C)C4)c3)no2)ncn1 [Example 508] | 49.1 |
| CC(=O)N1CC[C@@H](Cc2nc(-c3cncc([C@@](O)(c4ccc(C(C)C)cc4)C4(C)CN(C)C4)c3)no2)C1 [Example 514] | 142 |
| Cc1nc(-c2cncc([C@@](O)(c3ccc(C(C)C)cc3)C3(C)CN(C)C3)c2)no1 [Example 517, (R)-(1,3-Dimethyl-azetidin-3-yl)-(4-isopropyl-phenyl)-[5-(5-methyl-[1,2,4]oxadiazol-3-yl)-pyridin-3-yl]-methanol] | 63.5 |
| CC(C)c1ccc([C@](O)(c2cncc(-c3noc(C(C)(F)F)n3)c2)C2(C)CN(C)C2)cc1 [Example 518, (R)-{5-[5-(1,1-Difluoro-ethyl)-[1,2,4]oxadiazol-3-yl]-pyridin-3-yl}-(1,3-dimethyl-azetidin-3-yl)-(4-isopropyl-phenyl)-methanol] | 41.2 |
| CC(C)c1ccc([C@](O)(c2cncc(-c3nc(C4(O)CCOCC4)no3)c2)C2(C)CN(C)C2)cc1 [Example 519, 4-(5-{5-[(R)-(1,3-Dimethyl-azetidin-3-yl)-hydroxy-(4-isopropyl-phenyl)-methyl]-pyridin-3-yl}-[1,2,4]oxadiazol-3-yl)-tetrahydro-pyran-4-ol] | 168 |
| CC(C)c1ccc([C@](O)(c2cncc(-c3nc(COC(C)(C)C)no3)c2)C2(C)CN(C)C2)cc1 [Example 520] | 62.6 |
| CC(C)c1ccc([C@](O)(c2cncc(-c3nc(CO)no3)c2)C2(C)CN(C)C2)cc1 [Example 521] | 153 |
| CC(=O)N1CCN(c2noc(-c3cncc([C@@](O)(c4ccc(C(C)C)cc4)C4(C)CN(C)C4)c3)n2)CC1 [Example 522] | 119 |
| CC(=O)N1CC(Cc2noc(-c3cncc([C@@](O)(c4ccc(C(C)C)cc4)C4(C)CN(C)C4)c3)n2)C1 [Example 523] | 297 |
| CC(C)c1ccc([C@](O)(c2cncc(-c3nc(CC4(O)CCOCC4)no3)c2)C2(C)CN(C)C2)cc1 [Example 524, 4-(5-{5-[(R)-(1,3-Dimethyl-azetidin-3-yl)-hydroxy-(4-isopropyl-phenyl)-methyl]-pyridin-3-yl}-[1,2,4]oxadiazol-3-ylmethyl)-tetrahydro-pyran-4-ol] | 178 |
| CC(C)c1ccc([C@](O)(c2cncc(-c3nc(C4CCN(C(=O)C5COCCO5)CC4)no3)c2)C2(C)CN(C)C2)cc1 (stereo partly drawn) [Example 525, [4-(5-{5-[(R)-(1,3-Dimethyl-azetidin-3-yl)-hydroxy-(4-isopropyl-phenyl)-methyl]-pyridin-3-yl}-[1,2,4]oxadiazol-3-yl)-piperidin-1-yl]-[1,4]dioxan-2-yl-methanone] | 187 |
| COCC(=O)N1CCC(c2noc(-c3cncc([C@@](O)(c4ccc(C(C)C)cc4)C4(C)CN(C)C4)c3)n2)CC1 [Example 526, 1-[4-(5-{5-[(R)-(1,3-Dimethyl-azetidin-3-yl)-hydroxy-(4-isopropyl-phenyl)-methyl]-pyridin-3-yl}-[1,2,4]oxadiazol-3-yl)-piperidin-1-yl]-2-methoxy-ethanone] | 171 |
| CC(C)c1ccc([C@](O)(c2cncc(-c3nc(C4CCN(S(C)(=O)=O)CC4)no3)c2)C2(C)CN(C)C2)cc1 [Example 527, (R)-(1,3-Dimethyl-azetidin-3-yl)-(4-isopropyl-phenyl)-{5-[3-(1-methanesulfonyl-piperidin-4-yl)-[1,2,4]oxadiazol-5-yl]-pyridin-3-yl}-methanol] | 74.3 |
| COCCS(=O)(=O)N1CCC(c2noc(-c3cncc([C@@](O)(c4ccc(C(C)C)cc4)C4(C)CN(C)C4)c3)n2)CC1 [Example 528, (R)-(1,3-Dimethyl-azetidin-3-yl)-(4-isopropyl-phenyl)-(5-{3-[1-(2-methoxy-ethanesulfonyl)-piperidin-4-yl]-[1,2,4]oxadiazol-5-yl}-pyridin-3-yl)-methanol] | 66.9 |
| CC(C)c1ccc([C@](O)(c2cncc(-c3nc(C4CCN(C(=O)CO)CC4)no3)c2)C2(C)CN(C)C2)cc1 [Example 529, 1-[4-(5-{5-[(R)-(1,3-Dimethyl-azetidin-3-yl)-hydroxy-(4-isopropyl-phenyl)-methyl]-pyridin-3-yl}-[1,2,4]oxadiazol-3-yl)-piperidin-1-yl]-2-hydroxy-ethanone] | 134 |
| CC(C)c1ccc([C@](O)(c2cncc(-c3ncon3)c2)C2(C)CN(C)C2)cc1 [Example 530, (R)-(1,3-Dimethyl-azetidin-3-yl)-(4-isopropyl-phenyl)-(5-[1,2,4]oxadiazol-3-yl-pyridin-3-yl)-methanol] | 58.7 |
| CC(=O)N1CCC(c2nc(-c3cncc([C@@](O)(c4ccc(C(C)C)cc4)C4(C)CN(C)C4)c3)no2)CC1 [Example 531, 1-[4-(3-{5-[(R)-(1,3-Dimethyl-azetidin-3-yl)-hydroxy-(4-isopropyl-phenyl)-methyl]-pyridin-3-yl}-[1,2,4]oxadiazol-5-yl)-piperidin-1-yl]-ethanone] | 90 |
| CN1CC(C)([C@](O)(c2ccc(Br)cc2)c2cncc(-c3noc(C(C)(C)O)n3)c2)C1 [Example 532] | 718 |
| CN1CC(C)([C@@](O)(c2cncc(-c3noc(C(C)(C)O)n3)c2)c2ccc3ccccc3c2)C1 [Example 533] | 1020 |
| CN1CC(C)([C@](O)(c2ccc(C3(C(F)(F)F)CC3)cc2)c2cncc(-c3noc(C(C)(C)O)n3)c2)C1 [Example 534] | 47 |
| CN1CC(C)([C@](O)(c2ccc(C(C)(C)C(F)(F)F)cc2)c2cncc(-c3noc(C(C)(C)O)n3)c2)C1 [Example 535] | 331 |
| CC(C)Oc1ccc([C@](O)(c2cncc(-c3noc(C(C)(C)O)n3)c2)C2(C)CN(C)C2)cc1 [Example 536] | 2450 |
